Patent US10758534B2 (Vertex Pharmaceuticals Incorporated, priority 2014, dated 2020)

Each compound was assayed against T1, F508del (Homo sapiens, UniProt P13569, DEL508-508) (assay: Protocol 2: FRET membrane potential optical assay (VIPR), identification of correction compounds). Conditions: Table 3; compounds of Table 1 as modulators of CFTR activity; protocol not stated.
T1 construct: expressed in transfected cells
Assay type: cell-based
Outline: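 NIH3T3 mouse fibroblasts stably expressing F508del were treated with test compound for 16 hrs at 37° C. in serum-free medium; 27° C. incubation served as positive control. F508del was activated with 10 μM forskolin plus 20 μM genistein in Cl^−-free medium, and Cl^− efflux-driven depolarization was read by DiSBAC2(3)/CC2-DMPE FRET.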

T1 sequence (P13569 with tags, fused parts or gaps DEL508-508): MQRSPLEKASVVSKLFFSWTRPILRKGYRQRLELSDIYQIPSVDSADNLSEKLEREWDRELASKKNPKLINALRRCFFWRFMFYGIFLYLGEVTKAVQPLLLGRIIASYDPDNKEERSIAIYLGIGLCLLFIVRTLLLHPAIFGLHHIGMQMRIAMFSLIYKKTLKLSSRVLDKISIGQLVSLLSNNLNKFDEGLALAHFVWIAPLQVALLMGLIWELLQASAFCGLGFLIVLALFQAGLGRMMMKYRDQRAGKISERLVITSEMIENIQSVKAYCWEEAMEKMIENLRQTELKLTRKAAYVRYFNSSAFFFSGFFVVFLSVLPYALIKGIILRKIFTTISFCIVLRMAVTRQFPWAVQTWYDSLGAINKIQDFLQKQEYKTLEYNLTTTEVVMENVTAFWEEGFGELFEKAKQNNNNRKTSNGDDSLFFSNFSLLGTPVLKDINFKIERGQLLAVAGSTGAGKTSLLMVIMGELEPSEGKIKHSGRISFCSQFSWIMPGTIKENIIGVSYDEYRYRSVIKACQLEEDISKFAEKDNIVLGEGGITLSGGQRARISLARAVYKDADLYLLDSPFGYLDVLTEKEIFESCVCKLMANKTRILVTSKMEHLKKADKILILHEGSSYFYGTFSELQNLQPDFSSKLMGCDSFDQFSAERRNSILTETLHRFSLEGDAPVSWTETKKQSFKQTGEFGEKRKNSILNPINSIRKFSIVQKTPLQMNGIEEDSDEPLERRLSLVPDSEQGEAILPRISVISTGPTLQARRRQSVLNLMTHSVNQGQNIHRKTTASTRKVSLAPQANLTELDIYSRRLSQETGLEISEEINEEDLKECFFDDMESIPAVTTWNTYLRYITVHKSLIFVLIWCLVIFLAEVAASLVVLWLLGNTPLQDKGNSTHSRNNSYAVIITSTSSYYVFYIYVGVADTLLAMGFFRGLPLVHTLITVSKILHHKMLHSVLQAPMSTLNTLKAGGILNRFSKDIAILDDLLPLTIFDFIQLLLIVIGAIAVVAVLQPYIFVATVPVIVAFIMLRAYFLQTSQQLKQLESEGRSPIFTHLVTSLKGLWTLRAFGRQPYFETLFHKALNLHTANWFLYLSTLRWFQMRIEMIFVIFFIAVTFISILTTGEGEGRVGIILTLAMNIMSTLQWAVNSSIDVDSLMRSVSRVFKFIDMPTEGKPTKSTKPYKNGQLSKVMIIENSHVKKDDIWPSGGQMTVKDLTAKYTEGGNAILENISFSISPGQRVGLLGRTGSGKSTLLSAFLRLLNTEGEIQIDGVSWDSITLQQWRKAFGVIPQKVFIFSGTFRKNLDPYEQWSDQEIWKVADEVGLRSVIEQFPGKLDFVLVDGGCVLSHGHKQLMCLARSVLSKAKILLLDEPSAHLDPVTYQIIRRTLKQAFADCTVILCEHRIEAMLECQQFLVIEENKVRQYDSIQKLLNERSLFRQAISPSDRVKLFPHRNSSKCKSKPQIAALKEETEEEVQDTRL

Structure (SMILES)	EC30
COc1ccc2c(c1)cc(C(=O)NS(=O)(=O)c1cccc(N)c1)n2Cc1c(C)cc(C)cc1C [Compound 336, N-(3-aminophenyl)sulfonyl-5-methoxy-1-[(2,4,6-trimethylphenyl)methyl]indole-2-carboxamide]	+++ (“+++” means <3 uM)
Cc1cc(C)c(Oc2cc(C(C)(C)C)ncc2C(=O)NS(=O)(=O)c2cccc(N)c2)c(C)c1 [Compound 338, N-(3-aminophenyl)sulfonyl-6-tert-butyl-4-(2,4,6-trimethylphenoxy)pyridine-3-carboxamide]	+++ (“+++” means <3 uM)
Cc1cccc(C)c1Cn1nc(-c2ccccc2Cl)cc1C(=O)NS(=O)(=O)c1ccccc1 [Compound 339, N-(benzenesulfonyl)-5-(2-chlorophenyl)-2-[(2,6-dimethylphenyl)methyl]pyrazole-3-carboxamide]	+++ (“+++” means <3 uM)
Cc1ccccc1C(C)n1nc(C(C)(C)C)cc1C(=O)NS(=O)(=O)c1cccc(N)c1 (stereo not shown) [Compound 342, N-(3-aminophenyl)sulfonyl-5-tert-butyl-2-[1-(o-tolyl)ethyl]pyrazole-3-carboxamide]	+++ (“+++” means <3 uM)
Cc1cc(C)c(Cn2c(C(=O)NS(=O)(=O)c3cccc(N)c3)cc3cc(Cl)ccc32)c(C)c1 [Compound 344, N-(3-aminophenyl)sulfonyl-5-chloro-1-[(2,4,6-trimethylphenyl)methyl]indole-2-carboxamide]	+++ (“+++” means <3 uM)
COc1ccccc1-c1cc(C(=O)NS(=O)(=O)c2ccccc2)n(Cc2c(C)cccc2C)n1 [Compound 347, N-(benzenesulfonyl)-2-[(2,6-dimethylphenyl)methyl]-5-(2-methoxyphenyl)pyrazole-3-carboxamide]	+++ (“+++” means <3 uM)
COc1cccc2c1cc(C(=O)NS(=O)(=O)c1ccccc1)n2Cc1c(C)cc(C)cc1C [Compound 348, N-(benzenesulfonyl)-4-methoxy-1-[(2,4,6-trimethylphenyl)methyl]indole-2-carboxamide]	+++ (“+++” means <3 uM)
Cc1cc(C)c(Oc2ccc(C(C)(C)C)nc2C(=O)NS(=O)(=O)c2ccccc2)c(C)c1 [Compound 350, N-(benzenesulfonyl)-6-tert-butyl-3-(2,4,6-trimethylphenoxy)pyridine-2-carboxamide]	+++ (“+++” means <3 uM)
Cc1cc(C)c(Oc2nc(-c3cc(OCC(C)C)ccc3F)ccc2C(=O)NS(=O)(=O)c2cccc(N)n2)c(C)c1 [Compound 351, N-[(6-amino-2-pyridyl)sulfonyl]-6-(2-fluoro-5-isobutoxy-phenyl)-2-(2,4,6-trimethylphenoxy)pyridine-3-carboxamide]	+++ (“+++” means <3 uM)
Cc1cc(C)c(Cn2nc(C(C)(C)C)cc2C(=O)NS(=O)(=O)c2cccc3ncccc23)c(C)c1 [Compound 352, 5-tert-butyl-N-(5-quinolylsulfonyl)-2-[(2,4,6-trimethylphenyl)methyl]pyrazole-3-carboxamide]	+++ (“+++” means <3 uM)
Cc1cc(C)c(Cn2c(C(=O)NS(=O)(=O)c3ccccc3)cc3cccc(C)c32)c(C)c1 [Compound 354, N-(benzenesulfonyl)-7-methyl-1-[(2,4,6-trimethylphenyl)methyl]indole-2-carboxamide]	+++ (“+++” means <3 uM)
CC(C)COc1cc(F)cc(-c2ccc(C(=O)NS(=O)(=O)c3ccn[nH]3)c(N3CCCCC3)n2)c1 [Compound 355, 6-(3-fluoro-5-isobutoxy-phenyl)-2-(1-piperidyl)-N-(1H-pyrazol-5-ylsulfonyl)pyridine-3-carboxamide]	+++ (“+++” means <3 uM)
Cc1cccc(C)c1Cn1nc(-c2ccsc2)cc1C(=O)NS(=O)(=O)c1ccccc1 [Compound 357, N-(benzenesulfonyl)-2-[(2,6-dimethylphenyl)methyl]-5-(3-thienyl)pyrazole-3-carboxamide]	++ (“++” means between 3 uM and 10 uM)
Cc1cc(C)c(Cn2c(C(=O)NS(=O)(=O)c3ccccc3C#N)cc3ccccc32)c(C)c1 [Compound 358]	+++ (“+++” means <3 uM)
Cc1cc(C)c(Cc2oc(C(C)(C)C)nc2C(=O)NS(=O)(=O)c2cccc(N)c2)c(C)c1 [Compound 360, N-(3-aminophenyl)sulfonyl-2-tert-butyl-5-[(2,4,6-trimethylphenyl)methyl]oxazole-4-carboxamide]	+++ (“+++” means <3 uM)
CC(C)COc1cc(F)cc(-c2ccc(C(=O)NS(=O)(=O)c3cccc(N)n3)c(N3CCCC3(C)C)n2)c1 [Compound 361, N-[(6-amino-2-pyridyl)sulfonyl]-2-(2,2-dimethylpyrrolidin-1-yl)-6-(3-fluoro-5-isobutoxy-phenyl)pyridine-3-carboxamide]	+++ (“+++” means <3 uM)
Cc1cc(C)c(Cn2c(C(=O)NS(=O)(=O)c3cccc(N)c3)cc3c(Cl)cccc32)c(C)c1 [Compound 362, N-(3-aminophenyl)sulfonyl-4-chloro-1-[(2,4,6-trimethylphenyl)methyl]indole-2-carboxamide]	+++ (“+++” means <3 uM)
Cc1cccc(C)c1Cn1nc(-c2cccc3c2ccn3C)cc1C(=O)NS(=O)(=O)c1ccccc1 [Compound 363, N-(benzenesulfonyl)-2-[(2,6-dimethylphenyl)methyl]-5-(1-methylindol-4-yl)pyrazole-3-carboxamide]	+++ (“+++” means <3 uM)
COc1ncccc1S(=O)(=O)NC(=O)c1ccc(C2(C)CC2)nc1Oc1c(C)cc(C)cc1C [Compound 365, N-[(2-methoxy-3-pyridyl)sulfonyl]-6-(1-methylcyclopropyl)-2-(2,4,6-trimethylphenoxy)pyridine-3-carboxamide]	+++ (“+++” means <3 uM)
Cc1cc(C)c(Cn2nc(-c3ccccc3)cc2C(=O)NS(=O)(=O)c2cccc(N)c2)c(C)c1 [Compound 366]	+++ (“+++” means <3 uM)
Cc1cc(C)c(Cc2cn(C(C)(C)C)nc2C(=O)NS(=O)(=O)c2cccc(N)c2)c(C)c1 [Compound 367]	+++ (“+++” means <3 uM)
CC(C)COc1cc(F)cc(-c2ccc(C(=O)NS(=O)(=O)c3cccc(N)n3)c(N3C[C@@H](C)CC3(C)C)n2)c1 [Compound 368, N-[(6-amino-2-pyridyl)sulfonyl]-6-(3-fluoro-5-isobutoxy-phenyl)-2-[(4S)-2,2,4-trimethylpyrrolidin-1-yl]pyridine-3-carboxamide]	+++ (“+++” means <3 uM)
Cc1cccc(C)c1Cn1nc(-c2ccccc2C(F)(F)F)cc1C(=O)NS(=O)(=O)c1ccccc1 [Compound 369, N-(benzenesulfonyl)-2-[(2,6-dimethylphenyl)methyl]-5-[2-(trifluoromethyl)phenyl]pyrazole-3-carboxamide]	+++ (“+++” means <3 uM)

More lines, now with the values ahead:

EC30	Structure (SMILES)
+++ (“+++” means <3 uM)	CC(C)Oc1ccc(-c2ccc(C(=O)NS(=O)(=O)c3cccc(N)n3)c(N3[C@H](C)CC[C@@H]3C)n2)cn1 [Compound 337, N-[(6-amino-2-pyridyl)sulfonyl]-2-[(2S,5R)-2,5-dimethylpyrrolidin-1-yl]-6-(6-isopropoxy-3-pyridyl)pyridine-3-carboxamide]
+++ (“+++” means <3 uM)	Cc1ccc(Oc2nc(-c3ccccc3)ccc2C(=O)NS(=O)(=O)c2cccc(N)n2)c(C)c1 [Compound 340, N-[(6-amino-2-pyridyl)sulfonyl]-2-(2,4-dimethylphenoxy)-6-phenyl-pyridine-3-carboxamide]
+++ (“+++” means <3 uM)	Cc1cc(C)c(Oc2nc(C(C)(C)C)ccc2C(=O)NS(=O)(=O)c2ccccc2)c(C)c1 [Compound 341, N-(benzenesulfonyl)-6-tert-butyl-2-(2,4,6-trimethylphenoxy)pyridine-3-carboxamide]
+++ (“+++” means <3 uM)	Cc1cc(C)c(Oc2nc(-c3ccc(F)c4c3OCO4)ccc2C(=O)NS(=O)(=O)c2cccc(N)n2)c(C)c1 [Compound 345, N-[(6-amino-2-pyridyl)sulfonyl]-6-(7-fluoro-1,3-benzodioxol-4-yl)-2-(2,4,6-trimethylphenoxy)pyridine-3-carboxamide]
+++ (“+++” means <3 uM)	Cc1cc(C)c(Cc2nc(C(C)(C)C)ccc2C(=O)NS(=O)(=O)c2cccc(N)c2)c(C)c1 [Compound 346, N-(3-aminophenyl)sulfonyl-6-tert-butyl-2-[(2,4,6-trimethylphenyl)methyl]pyridine-3-carboxamide]
++ (“++” means between 3 uM and 10 uM)	Cc1ccc(-c2nc(C(C)(C)C)ccc2C(=O)NS(=O)(=O)c2cccc(N)c2)cc1F [Compound 349, N-(3-aminophenyl)sulfonyl-6-tert-butyl-2-(3-fluoro-4-methyl-phenyl)pyridine-3-carboxamide]
+++ (“+++” means <3 uM)	CC(C)Oc1ccc(-c2ccc(C(=O)NS(=O)(=O)c3cccc(N)n3)c(N3CCCC(C)C3C)n2)cn1 (stereo not shown) [Compound 353, N-[(6-amino-2-pyridyl)sulfonyl]-2-(2,3-dimethyl-1-piperidyl)-6-(6-isopropoxy-3-pyridyl)pyridine-3-carboxamide]
+++ (“+++” means <3 uM)	Cc1cc(C)c(Cn2nc(C(C)(C)C)c(C)c2C(=O)NS(=O)(=O)c2cccc(N)n2)c(C)c1 [Compound 356, N-[(6-amino-2-pyridyl)sulfonyl]-5-tert-butyl-4-methyl-2-[(2,4,6-trimethylphenyl)methyl]pyrazole-3-carboxamide]
+++ (“+++” means <3 uM)	CCc1ccc(-c2nc(C(C)(C)C)ccc2C(=O)NS(=O)(=O)c2cccc(N)c2)cc1 [Compound 359, N-(3-aminophenyl)sulfonyl-6-tert-butyl-2-(4-ethylphenyl)pyridine-3-carboxamide]
+-F+	Cc1cc(C)c(Oc2nc(-c3ccccc3C(C)(C)C)ccc2C(=O)NS(=O)(=O)c2cccc(N)n2)c(C)c1 [Compound 364, N-[(6-amino-2-pyridyl)sulfonyl]-6-(2-tert-butylphenyl)-2-(2,4,6-trimethylphenoxy)pyridine-3-carboxamide]
+++ (“+++” means <3 uM)	Cc1cccc(C)c1Cn1nc(C2CC3CCC2C3)cc1C(=O)NS(=O)(=O)c1cccc(N)c1 (stereo not shown) [Compound 370, N-(3-aminophenyl)sulfonyl-2-[(2,6-dimethylphenyl)methyl]-5-norbornan-2-yl-pyrazole-3-carboxamide]
